Assay results reported in patent US8759295B2, “Peptide-peptidase inhibitor conjugates and methods of using same” (Amylin Pharmaceuticals, LLC, priority 2006, dated 2014).

Biological target: T1, ACE from rabbit lung (Oryctolagus cuniculus, UniProt P12822)
T1 construct: ACE from rabbit lung, Sigma Chemical Co., St. Louis, Mo; purchased Sigma Chemical Co., St. Louis, Mo; host or cells: rabbit lung (tissue-derived enzyme)
T1 sequence (P12822 34-1310): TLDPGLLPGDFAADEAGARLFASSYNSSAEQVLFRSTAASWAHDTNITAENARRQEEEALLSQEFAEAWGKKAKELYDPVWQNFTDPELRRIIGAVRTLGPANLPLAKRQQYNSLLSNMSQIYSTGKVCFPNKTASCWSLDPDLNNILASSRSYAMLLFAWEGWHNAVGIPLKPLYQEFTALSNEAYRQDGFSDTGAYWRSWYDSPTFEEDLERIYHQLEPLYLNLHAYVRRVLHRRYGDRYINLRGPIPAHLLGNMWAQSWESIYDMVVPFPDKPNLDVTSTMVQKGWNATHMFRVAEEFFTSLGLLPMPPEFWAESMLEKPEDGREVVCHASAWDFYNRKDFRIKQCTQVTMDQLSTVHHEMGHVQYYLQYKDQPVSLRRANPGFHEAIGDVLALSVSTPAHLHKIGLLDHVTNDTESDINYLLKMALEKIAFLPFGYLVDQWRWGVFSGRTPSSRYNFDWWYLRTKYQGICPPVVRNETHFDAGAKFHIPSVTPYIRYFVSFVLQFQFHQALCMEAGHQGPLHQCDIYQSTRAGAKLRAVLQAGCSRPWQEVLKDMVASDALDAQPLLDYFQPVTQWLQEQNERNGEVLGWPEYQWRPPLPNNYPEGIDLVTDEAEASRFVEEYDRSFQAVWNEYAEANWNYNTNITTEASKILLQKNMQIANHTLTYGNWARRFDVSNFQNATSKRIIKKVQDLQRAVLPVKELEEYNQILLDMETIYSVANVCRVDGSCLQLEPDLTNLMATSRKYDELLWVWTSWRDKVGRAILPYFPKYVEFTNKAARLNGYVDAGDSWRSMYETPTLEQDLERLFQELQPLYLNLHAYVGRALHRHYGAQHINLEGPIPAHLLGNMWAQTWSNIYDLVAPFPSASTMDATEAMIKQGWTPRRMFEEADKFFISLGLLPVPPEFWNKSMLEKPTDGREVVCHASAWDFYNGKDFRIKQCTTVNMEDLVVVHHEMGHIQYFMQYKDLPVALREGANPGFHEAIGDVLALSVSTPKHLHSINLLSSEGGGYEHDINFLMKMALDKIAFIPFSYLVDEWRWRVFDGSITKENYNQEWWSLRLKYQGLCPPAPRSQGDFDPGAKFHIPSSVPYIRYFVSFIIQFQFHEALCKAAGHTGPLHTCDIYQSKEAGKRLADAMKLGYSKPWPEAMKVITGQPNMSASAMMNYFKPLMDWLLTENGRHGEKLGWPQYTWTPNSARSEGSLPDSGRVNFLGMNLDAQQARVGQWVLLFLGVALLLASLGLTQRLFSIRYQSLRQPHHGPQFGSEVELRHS
Experiment: ACE inhibition assay
Format: biochemical
Experimental: Peptide-ACE peptidase inhibitor conjugate compounds were assessed in an ACE inhibition assay using purified ACE enzyme and chromogenic substrates. An ACE stock solution was prepared by dissolving 0.1 unit of enzyme (ACE from rabbit lung, Sigma Chemical Co., St. Louis, Mo.) in 0.640 mL of HEPES buffer (0.1 M, pH=8). A 2 mM stock solution of substrate (N-benzyloxycarbonyl-Phe-His-Leu-OH) dissolved in methanol. The ACE inhibitor compounds were dissolved in phosphate buffer (0.1 M, pH=8) at concentrations of 0.0, 1, 10, 20, 60 and 100 μM. For the inhibition assay, six 2 mL microcentrifuge tubes were prepared containing 1.45 mL of phosphate buffer pH=8, 0.05 mL of 10% NaCl and 0.015 mL of substrate solution. To each microcentrifuge tube was added 0.015 mL of one of the ACE inhibitor compound's stock solutions. The solutions were heated at 37° C. for about 5 minutes. […] Initial rates were determined from linear portions of product release curves. […] Apparent binding constants (Kd^app or Ki^app) of inhibitors to ACE were determined by fitting inhibition curves (initial rate vs. inhibitor concentration) to equation:
[formula] where v0 is reaction rate in the absence of inhibitor and [I]—inhibitor concentration. Fits were done by least-squares method using KaleidaGraph 3.6 (Synergy Software, Reading Pa.).

Molecule `CC[C@H](C)[C@H](NC(=O)[C@H](Cc1ccccc1)NC(=O)[C@H](CCC(=O)O)NC(=O)[C@H](CCCCN)NC(=O)[C@H](C)NC(=O)[C@H](C)NC(=O)[C@H](CCC(N)=O)NC(=O)CNC(=O)[C@H](CCC(=O)O)NC(=O)[C@H](CC(C)C)NC(=O)[C@H](Cc1ccc(O)cc1)NC(=O)[C@H](CO)NC(=O)[C@H](CO)NC(=O)[C@@H](NC(=O)[C@H](CC(=O)O)NC(=O)[C@H](CO)NC(=O)[C@@H](NC(=O)[C@H](Cc1ccccc1)NC(=O)[C@@H](NC(=O)CNC(=O)[C@H](CCC(=O)O)NC(=O)[C@H](C)NC(=O)[C@@H](N)Cc1c[nH]cn1)[C@@H](C)O)[C@@H](C)O)C(C)C)C(=O)N[C@@H](C)C(=O)N[C@@H](Cc1c[nH]c2ccccc12)C(=O)N[C@@H](CC(C)C)C(=O)N[C@H](C(=O)N[C@@H](CCCCN)C(=O)NCC(=O)N[C@@H](CCCNC(=N)N)C(=O)NCC(=O)NCCCC(=O)NCCCC[C@H](NC(=O)[C@@H]1CCC(=O)N1)C(=O)N[C@@H](Cc1c[nH]c2ccccc12)C(=O)N[C@@H](C)C(=O)N1CCC[C@H]1C(=O)O)C(C)C` [3633/38, GLP-1-(7-37)-γ-Abu-N^ε2Lys-(Pyr)-WAP-OH] has an IC50 of over 10 µM.
